{"source": "patent US8545841B2", "about": "“Methods and compositions for the treatment of cancers and pathogenic infections” (University of Florida Research Foundation, Inc., priority 2008, dated 2013)", "key": {"P. gingivalis": {"system": "P. gingivalis", "experiment": "Trafficking of P. gingivalis to lysosomes in human coronary arterial endothelial cells (HCAEC)", "type": "cell-based, Porphyromonas gingivalis", "conditions": "HCAEC exposed to P. gingivalis; replicative vacuole in untreated cells", "text": "FIGS. 7A-7D. The inhibition of autophagy by AI-1 and AI-2 results in the trafficking of P. gingivalis to lysosomes. Human coronary arterial endothelial cells (HCAEC) were exposed to P. gingivalis (Pg) in the absence (FIG. 7A) and presence of 3-methyladenine (3MA) (FIG. 7B) and compounds AI-1 (FIG. 7C) and AI-2 (FIG. 7D).\nWe have previously shown that autophagy is required for P. gingivalis to thrive within host endothelial cells (Dorn, B. R., Dunn, W. A., Jr., and Progulske-Fox, A. “Porphyromonas gingivalis traffics to autophagosomes in human coronary artery endothelial cells” Infect Immun, 2001, Vol. 69, pp. 5698-5708). In fact, in the absence of autophagy, this bacterium fails to form a “replicative vacuole” and is instead transported to lysosomes where the bacterium is destroyed by digestive enzymes. We then tested the efficacy of AI-1 and AI-2 to promote the intracellular movements of this intracellular pathogen to the destructive lysosomes."}, "[1]": {"system": "Saos-2 osteosarcoma and MDA-MB468 breast carcinoma cell lines", "experiment": "GFP-Atg8 labeled autophagic vacuoles in nutrient-starved cells stably expressing GFP-Atg8", "type": "cell-based", "conditions": "starved Saos-2 cells, FIG. 2", "experimental": "FIGS. 2A-2D. Atg-4-targeted drugs decreased the number of Atg8 (LC3)-labeled autophagic vacuoles. Saos-2 osteosarcoma and MDA-MB468 breast carcinoma cells stably expressing GFP-Atg8 were incubated under nutrient fed and starved (St) conditions in the presence and absence of AI-1 and AI-2. The presence GFP-Atg8 labeled autophagic vacuoles appear as dots (arrows) in starved Saos-2 cells (FIG. 2B). Atg8-labeled vacuoles are not observed in fed Saos-2 cells or starved cell treated with AI-1. Almost 70% of the starved cells contained autophagic vacuoles. However, the number of starved cells containing autophagic vacuoles was dramatically reduce upon treatment with AI-1 and AI-2 (FIG. 2D; n=number of cells counted). The Atg4 compounds were obtained from the National Cancer Institute (NCI) and then tested for their ability to suppress autophagy by observing the presence of autophagosomes in Saos-2 osteosarcoma and MDA-MB468 breast carcinoma cell lines stabling expressing Atg8 tagged with a green fluorescent protein (GFP-Atg8). Upon the onset of autophagy, Atg8 becomes lipidated being anchored to the autophagosome membrane whereby this protein then recruits additional membranes for expanding the size of the vacuoles and thus, regulating the degradative amplitude of autophagy. […]"}, "Atg8 (LC3)": {"system": "Atg8 (LC3)", "experiment": "Lipidation of Atg8 (Atg8-PE) by Western blotting in starved Saos-2 cells", "type": "cell-based", "conditions": "Saos-2 cells expressing GFP-Atg8 starved for amino acids for 2-6 h", "text": "(§1) FIG. 3. Atg-4-targeted compounds suppress the lipidation of Atg8 (LC3) in Saos-2 osteosarcoma cells. The lipidation of Atg8 (Atg8-PE) was examined by Western blotting in fed and starved (medium lacking amino acids and serum) cells and in starved cells treated with 3-methyladenine (3MA), AI-1 and AI-2. The Atg4 compounds were obtained from the National Cancer Institute (NCI) and then tested for their ability to suppress autophagy by observing the presence of autophagosomes in Saos-2 osteosarcoma and MDA-MB468 breast carcinoma cell lines stabling expressing Atg8 tagged with a green fluorescent protein (GFP-Atg8). Upon the onset of autophagy, Atg8 becomes lipidated being anchored to the autophagosome membrane whereby this protein then recruits additional membranes for expanding the size of the vacuoles and thus, regulating the degradative amplitude of autophagy. […] Compared to 70% of the starved cells containing autophagic vacuoles, less than 20% of those starved cells treated with AI-1 or AI-2 contained these vacuoles. These observations were consistent with the negative effects of these compounds on the lipidation of Atg8 (FIG. 3). Saos-2 cells expressing GFP-Atg8 were starved for amino acids for 2-6 h in the absence and presence of 3-methyladenine and the Atg4 compounds. […]"}, "[2]": {"system": "Saos-2 and MDA-MB468 cells", "experiment": "Starvation induced (autophagy-mediated) protein degradation, pulse-chase with 14C-leucine", "type": "cell-based", "conditions": "starved cells, FIG. 4", "experimental": "FIG. 4. Atg-4-targeted drugs suppress starvation induced (autophagy-mediated) protein degradation. Saos-2 and MDA-MB468 cells were incubated under nutrient fed and starved conditions in the presence and absence of 3-methyladenine (3MA), AI-1 and AI-2 and the rates of protein degradation measure by pulse-chase methodology with 14C-leucine. Bars=mean±SEM. n=4-6 trials. The Atg4 compounds were obtained from the National Cancer Institute (NCI) and then tested for their ability to suppress autophagy by observing the presence of autophagosomes in Saos-2 osteosarcoma and MDA-MB468 breast carcinoma cell lines stabling expressing Atg8 tagged with a green fluorescent protein (GFP-Atg8). Upon the onset of autophagy, Atg8 becomes lipidated being anchored to the autophagosome membrane whereby this protein then recruits additional membranes for expanding the size of the vacuoles and thus, regulating the degradative amplitude of autophagy. […] Compared to 70% of the starved cells containing autophagic vacuoles, less than 20% of those starved cells treated with AI-1 or AI-2 contained these vacuoles. These observations were consistent with the negative effects of these compounds on the lipidation of Atg8 (FIG. 3). Saos-2 cells expressing GFP-Atg8 were starved for amino acids for 2-6 h in the absence and presence of 3-methyladenine and the Atg4 compounds. […]"}, "HuH7 hepatoma cells": {"system": "HuH7 hepatoma cells", "experiment": "Survival of nutrient-starved cells, crystal violet staining", "type": "cell-based", "conditions": "HuH7, nutrient-deprived serum-free medium, 24 hours", "experimental": "(§2) FIGS. 6A-B. Atg-4-targeted drugs decrease cell survival of nutrient deprived cancer cells. Control breast epithelial MCF10A, MDA-MB 468 breast carcinoma, Saos2 osteosarcoma, and HuH7 hepatoma were incubated under nutrient fed and starved conditions in the presence and absence of AI-1 and AI-2. The number of viable cells on the plate relative to fed after 24 hrs was quantified by crystal violet staining. Bars=mean±SEM, n=4-6 trials.\n(§3) During the early stages of tumor growth prior to vascularization, cancer cells are exposed to conditions lacking nutrients and growth factors. These cells are able to survive these conditions by activating autophagy, thereby degrading endogenous macromolecules and recycling the nutrients. In order to simulate these conditions in vitro, we have incubated cells in the absence of amino acids and serum. Approximately 65-75% of the normal and cancer cell lines tested survived when exposed to nutrient-deprived serum-free medium for 24 hours."}, "[3]": {"system": "Saos-2 osteosarcoma cells", "experiment": "Survival of nutrient-starved cells, crystal violet staining", "type": "cell-based", "conditions": "Saos-2, nutrient-deprived serum-free medium, 24 hours", "experimental": "as §2, §3"}, "[4]": {"system": "breast carcinoma MDA-MB468 cells", "experiment": "Survival of nutrient-starved cells, crystal violet staining", "type": "cell-based", "conditions": "MDA-MB468, nutrient-deprived serum-free medium, 24 hours", "experimental": "as §2, §3"}, "[5]": {"system": "normal breast epithelial cells (MCF10A)", "experiment": "Survival of nutrient-starved cells, crystal violet staining", "type": "cell-based", "conditions": "nutrient-deprived serum-free medium, 24 hours", "experimental": "as §2, §3"}, "MDA-MB468 cells": {"system": "MDA-MB468 cells", "experiment": "Size and distribution of autophagic vacuoles by electron microscopy", "type": "cell-based", "conditions": "starved MDA-MB468 cells", "experimental": "FIGS. 5A-5D. Atg-4-targeted drugs reduce the size of autophagic vacuoles. MDA-MB468 cells were incubated under nutrient fed (FIG. 5A) and starved (medium lacking amino acids and serum; FIG. 5B) conditions in the presence and absence of AI-1 (FIG. 5C) and AI-2 (FIG. 5D), Autophagic vacuoles (arrows) were visualized by electron microscopy. The “black” reaction product of CMPase, a lysosomal enzyme, can be seen within small lysosomes, many larger autophagic vacuoles (arrows) as well as the Golgi apparatus (Go).\nas §1, with “The” for “FIG. 3. Atg-4-targeted compounds suppress the lipidation of Atg8 (LC3) in Saos-2 osteosarcoma cells. The lipidation of Atg8 (Atg8-PE) was examined by Western blotting in fed and starved (medium lacking amino acids and serum) cells and in starved cells treated with 3-methyladenine (3MA), AI-1 and AI-2. The”, “3).” for “3). Saos-2 cells expressing GFP-Atg8 were starved for amino acids for 2-6 h in the absence and presence of 3-methyladenine and the Atg4 compounds.”"}}}
{"smiles": "Cn1cnc(N)c2ncnc1-2", "note": "[3-methyladenine, reference compound]", "values": [{"measurement": "location and state of intracellular P. gingivalis", "setting": "P. gingivalis", "value": "partially degraded bacteria were found in CMPase-positive lysosomes"}]}
{"smiles": "S=C(Nc1ccccn1)c1ccccn1", "note": "[AI-1, N-2-pyridinyl-2-pyridinecarbothioamide]", "values": [{"measurement": "Atg8-labeled vacuoles observed", "setting": "[1]", "value": "not observed"}, {"measurement": "lipidation of Atg8 (Atg8-PE)", "setting": "Atg8 (LC3)", "value": "inhibiting the lipidation of Atg8 (LC3)"}, {"measurement": "degradation of endogenous proteins", "setting": "[2]", "value": "reduction in the degradation of endogenous proteins"}, {"measurement": "survival of nutrient-starved cells", "setting": "HuH7 hepatoma cells", "value": "moderate activity"}, {"measurement": "survival of nutrient-starved cells", "setting": "[3]", "value": "moderate activity"}, {"measurement": "survival of nutrient-starved cells", "setting": "[4]", "value": "less than 40%"}, {"measurement": "survival of nutrient-starved cells", "setting": "[5]", "value": "only moderately affected"}, {"measurement": "location and state of intracellular P. gingivalis", "setting": "P. gingivalis", "value": "bacteria in various degraded states were observed in CMPase-positive lysosomes"}]}
{"smiles": "CC(C)OC(=O)Nc1ccc2nc(-c3cscn3)[nH]c2c1", "note": "[AI-2, cambendazole]", "values": [{"measurement": "lipidation of Atg8 (Atg8-PE)", "setting": "Atg8 (LC3)", "value": "inhibiting the lipidation of Atg8 (LC3)"}, {"measurement": "degradation of endogenous proteins", "setting": "[2]", "value": "reduction in the degradation of endogenous proteins"}, {"measurement": "distribution of autophagic vacuoles", "setting": "MDA-MB468 cells", "value": "dramatic redistribution of the autophagic vacuoles to a centralized region of the cell"}, {"measurement": "survival of nutrient-starved cells", "setting": "HuH7 hepatoma cells", "value": "30 % of controls"}, {"measurement": "survival of nutrient-starved cells", "setting": "[5]", "value": "only moderately affected"}, {"measurement": "location and state of intracellular P. gingivalis", "setting": "P. gingivalis", "value": "bacteria in various degraded states were observed in CMPase-positive lysosomes"}]}
